The mortality is the percentage killed.

What all share (type): in vivo
For assay [1], the system named is Beet Armyworm (Spodoptera exigua, LAPHEG). Description: Bioassay on Beet Armyworm (BAW), 128-well diet tray assay. Conditions: 168 h, 50 μg/cm^2 on artificial diet, second instar BAW larvae, 25° C., five to seven days, average of eight wells, read-out: BAW % Control (or Mortality) rating. The method, then:
(§1) Certain molecules disclosed in this document were tested against BAW and CEW using procedures described in the following examples. In the reporting of the results, the “BAW & CL Rating Table” was used (See Table Section).
Bioassays on BAW were conducted using a 128-well diet tray assay. one to five second instar BAW larvae were placed in each well (3 mL) of the diet tray that had been previously filled with 1 mL of artificial diet to which 50 μg/cm^2 of the test compound (dissolved in 50 μL of 90:10 acetone-water mixture) had been applied (to each of eight wells) and then allowed to dry. Trays were covered with a clear self-adhesive cover and held at 25° C., 14:10 light-dark for five to seven days. Percent mortality was recorded for the larvae in each well; activity in the eight wells was then averaged. The results are indicated in the table entitled “Table ABC: Biological Results” (See Table Section).

In assay [2] the test system is Cabbage Looper (Trichoplusia ni, TRIPNI). Description: Bioassay on Cabbage Looper (CL), 128-well diet tray assay. Conditions: 168 h, 50 μg/cm^2 on artificial diet, second instar CL larvae, 25° C., five to seven days, average of eight wells, read-out: CL % Control (or Mortality) rating. On the procedure: as §1
Bioassays on CL were conducted using a 128-well diet tray assay, one to five second instar CL larvae were placed in each well (3 mL) of the diet tray that had been previously filled with 1 mL of artificial diet to which 50 μg/cm^2 of the test compound (dissolved in 50 μL of 90:10 acetone-water mixture) had been applied (to each of eight wells) and then allowed to dry. Trays were covered with a clear self-adhesive cover and held at 25° C., 14:10 light-dark for five to seven days. Percent mortality was recorded for the larvae in each well; activity in the eight wells was then averaged. The results are indicated in the table entitled “Table ABC: Biological Results” (See Table Section).

For assay [3], the system named is Green Peach Aphid (Myzus persicae, MYZUPE). Put plainly: Bioassay on Green Peach Aphid (GPA), foliar spray on cabbage seedlings. The conditions noted are these: 72 h, 200 ppm spray on infested cabbage seedlings, graded after three days, Abbott corrected % control, read-out: GPA % Control (or Mortality) rating. On the procedure: Certain molecules disclosed in this document were tested against GPA using procedures described in the following example. In the reporting of the results, the “GPA Rating Table” was used (See Table Section).
Cabbage seedlings grown in 3-inch pots, with 2-3 small (3-5 cm) true leaves, were used as test substrate. The seedlings were infested with 20-50 GPA (wingless adult and nymph stages) one day prior to chemical application. Four pots with individual seedlings were used for each treatment. Test compounds (2 mg) were dissolved in 2 mL of acetone/methanol (1:1) solvent, forming stock solutions of 1000 ppm test compound. The stock solutions were diluted 5× with 0.025% Tween 20 in water to obtain the solution at 200 ppm test compound. A hand-held aspirator-type sprayer was used for spraying a solution to both sides of […] leaves until runoff. Reference plants (solvent check) were sprayed with the diluent only containing 20% by volume of acetone/methanol (1:1) solvent. Treated plants were held in a holding room for three days at approximately 25° C. and ambient relative humidity (RH) prior to grading. Evaluation was conducted by counting the number of live aphids per plant under a microscope. Percent Control was measured by using Abbott's correction formula (W. S. Abbott, “A Method of Computing the Effectiveness of an Insecticide” J. Econ. Entomol. 18 (1925), pp. 265-267) as follows. Corrected % Control=100*(X−Y)/X where X=No. of live aphids on solvent check plants and Y=No. of live aphids on treated plants

Regarding `FC(F)(F)Oc1ccc(-n2cnc(-c3ccc(NC4=NC(c5ccc(Cl)cc5)CO4)cc3)n2)cc1` (stereo not drawn) [Compound F3, 4-(4-Chlorophenyl)-N-(4-(1-(4-(trifluoromethoxy)phenyl)-1H-1,2,4-triazol-3-yl)phenyl)-4,5-dihydrooxazol-2-amine], the mortality at 50 µg/cm2 in assay [1] and in assay [2] was 50 to 100% in each case. Moreover, the mortality at 200 ppm in assay [3] lay in the range of 0 to 80%.
`Cc1ccc(C2COC(Nc3ccc(-c4ncn(-c5ccc(OC(F)(F)F)cc5)n4)cc3)=N2)cc1` (stereo not drawn) [Compound F4, 4-(p-Tolyl)-N-(4-(1-(4-(trifluoromethoxy)phenyl)-1H-1,2,4-triazol-3-yl)phenyl)-4,5-dihydrooxazol-2-amine]: the mortality at 50 µg/cm2 in assay [1] is 0%; in assay [2], 50 to 100%. Besides, the mortality at 200 ppm in assay [3] worked out at 0%.
As for `COc1ccc(C2COC(Nc3ccc(-c4ncn(-c5ccc(OC(F)(F)F)cc5)n4)cc3)=N2)cc1` (stereo not drawn) [Compound F6, 4-(4-Methoxyphenyl)-N-(4-(1-(4-(trifluoromethoxy)phenyl)-1H-1,2,4-triazol-3-yl)phenyl)-4,5-dihydrooxazol-2-amine], the mortality at 50 µg/cm2 in assay [1] and in assay [2] was 50 to 100% each time. In assay [3], the mortality at 200 ppm turned out to be 0%.
Take `FC(F)(F)Oc1ccc(-n2cnc(-c3ccc(NC4=NC(c5ccccc5)CO4)cc3)n2)cc1` (stereo not drawn) [Compound F7, 4-Phenyl-N-(4-(1-(4-(trifluoromethoxy)phenyl)-1H-1,2,4-triazol-3-yl)phenyl)-4,5-dihydrooxazol-2-amine]: the mortality at 50 µg/cm2 in assay [1] and in assay [2] was 50 to 100% in each case. Also, the mortality at 200 ppm in assay [3] is 80 to 100%.
As for `Fc1ccc(C2COC(Nc3ccc(-c4ncn(-c5ccc(OC(F)(F)F)cc5)n4)cc3)=N2)cc1` (stereo not drawn) [Compound F8, 4-(4-Fluorophenyl)-N-(4-(1-(4-(trifluoromethoxy)phenyl)-1H-1,2,4-triazol-3-yl)phenyl)-4,5-dihydrooxazol-2-amine], the mortality at 50 µg/cm2 in assay [1] and in assay [2] was 50 to 100% each time. Further, the mortality at 200 ppm in assay [3] lay within 0 to 80%.
Regarding `FC(F)(F)Oc1ccc(-n2cnc(-c3ccc(NC4=NC(c5ccc(Br)cc5)CO4)cc3)n2)cc1` (stereo not drawn) [Compound F9, 4-(4-Bromophenyl)-N-(4-(1-(4-(trifluoromethoxy)phenyl)-1H-1,2,4-triazol-3-yl)phenyl)-4,5-dihydrooxazol-2-amine], the mortality at 50 µg/cm2 in assay [1] and in assay [2] was 50 to 100% throughout. In addition, the mortality at 200 ppm in assay [3] is 80 to 100%.
Regarding `FC(F)(F)Oc1ccc(-n2cnc(-c3ccc(NC4=NC(c5cccc(Cl)c5)CO4)cc3)n2)cc1` (stereo not drawn) [Compound F10, 4-(3-Chlorophenyl)-N-(4-(1-(4-(trifluoromethoxy)phenyl)-1H-1,2,4-triazol-3-yl)phenyl)-4,5-dihydrooxazol-2-amine], the mortality at 50 µg/cm2 is 0% in assay [1] and 50 to 100% in assay [2]. Further, the mortality at 200 ppm in assay [3] stood at 0%.
As to `COc1ccc(C2COC(Nc3ccc(-c4ncn(-c5ccc(C(F)(F)F)cc5)n4)cc3)=N2)cc1` (stereo not drawn) [Compound F12, 4-(4-Methoxyphenyl)-N-(4-(1-(4-(trifluoromethyl)phenyl)-1H-1,2,4-triazol-3-yl)phenyl)-4,5-dihydrooxazol-2-amine], the mortality at 50 µg/cm2 in assay [1] and in assay [2] was 0% in each case. In addition, in assay [3], the mortality at 200 ppm turned out to be 0%.
With `Cc1ccc(C2COC(Nc3ccc(-c4ncn(-c5ccc(C(F)(F)F)cc5)n4)cc3)=N2)cc1` (stereo not drawn) [Compound F13, 4-(p-Tolyl)-N-(4-(1-(4-(trifluoromethyl)phenyl)-1H-1,2,4-triazol-3-yl)phenyl)-4,5-dihydrooxazol-2-amine], the mortality at 50 µg/cm2 in assay [1] and in assay [2] was 0% in each case. In addition, the mortality at 200 ppm in assay [3] turned out to be 0%.
Regarding `FC(F)(F)c1ccc(-n2cnc(-c3ccc(NC4=NC(c5ccccc5)CO4)cc3)n2)cc1` (stereo not drawn) [Compound F14, 4-Phenyl-N-(4-(1-(4-(trifluoromethyl)phenyl)-1H-1,2,4-triazol-3-yl)phenyl)-4,5-dihydrooxazol-2-amine], the mortality at 50 µg/cm2 in assay [1] and in assay [2] was 0% each time. The mortality at 200 ppm in assay [3] came out at 0%.
Take `Fc1ccc(C2COC(Nc3ccc(-c4ncn(-c5ccc(C(F)(F)F)cc5)n4)cc3)=N2)cc1` (stereo not drawn) [Compound F15, 4-(4-Fluorophenyl)-N-(4-(1-(4-(trifluoromethyl)phenyl)-1H-1,2,4-triazol-3-yl)phenyl)-4,5-dihydrooxazol-2-amine]: the mortality at 50 µg/cm2 in assay [1] and in assay [2] was 50 to 100% throughout. In addition, the mortality at 200 ppm in assay [3] was 0%.
Consider `FC(F)(F)c1ccc(-n2cnc(-c3ccc(NC4=NC(c5ccc(Cl)cc5)CO4)cc3)n2)cc1` (stereo not drawn) [Compound F16, 4-(4-Chlorophenyl)-N-(4-(1-(4-(trifluoromethyl)phenyl)-1H-1,2,4-triazol-3-yl)phenyl)-4,5-dihydrooxazol-2-amine], for which the mortality at 50 µg/cm2 in assay [1] and in assay [2] was 50 to 100% in each case. In assay [3], the mortality at 200 ppm is 80 to 100%.
In the case of `FC(F)(F)Oc1ccc(C2COC(Nc3ccc(-c4ncn(-c5ccc(C(F)(F)F)cc5)n4)cc3)=N2)cc1` (stereo not drawn) [Compound F17, 4-(4-(Trifluoromethoxy)phenyl)-N-(4-(1-(4-(trifluoromethyl)phenyl)-1H-1,2,4-triazol-3-yl)phenyl)-4,5-dihydrooxazol-2-amine], the mortality at 50 µg/cm2 in assay [1] and in assay [2] was 50 to 100% each time. Moreover, the mortality at 200 ppm in assay [3] was 0%.
With `FC(F)(F)c1ccc(-n2cnc(-c3ccc(NC4=NC(c5cccc(Cl)c5)CO4)cc3)n2)cc1` (stereo not drawn) [Compound F18, 4-(3-Chlorophenyl)-N-(4-(1-(4-(trifluoromethyl)phenyl)-1H-1,2,4-triazol-3-yl)phenyl)-4,5-dihydrooxazol-2-amine], the mortality at 50 µg/cm2 in assay [1] and in assay [2] was 50 to 100% each time. Further, in assay [3], the mortality at 200 ppm is 0%.
Regarding `FC(F)(F)c1ccc(-n2cnc(-c3ccc(NC4=NC(c5ccccc5Cl)CO4)cc3)n2)cc1` (stereo not drawn) [Compound F19, 4-(2-Chlorophenyl)-N-(4-(1-(4-(trifluoromethyl)phenyl)-1H-1,2,4-triazol-3-yl)phenyl)-4,5-dihydrooxazol-2-amine], the mortality at 50 µg/cm2 is 0% in assay [1] and 50 to 100% in assay [2]. Besides, the mortality at 200 ppm in assay [3] worked out at 0%.
In the case of `COc1ccc(C2CSC(Nc3ccc(-c4ncn(-c5ccc(OC(F)(F)F)cc5)n4)cc3)=N2)cc1` (stereo not drawn) [Compound F21, 4-(4-Methoxyphenyl)-N-(4-(1-(4-(trifluoromethoxy)phenyl)-1H-1,2,4-triazol-3-yl)phenyl)-4,5-dihydrothiazol-2-amine], the values for the mortality at 50 µg/cm2 in assay [1] and in assay [2] were 50 to 100% and 0%, respectively. Also, in assay [3], the mortality at 200 ppm turned out to be 0%.
As for `Cc1ccc(C2CSC(Nc3ccc(-c4ncn(-c5ccc(OC(F)(F)F)cc5)n4)cc3)=N2)cc1` (stereo not drawn) [Compound F22, 4-(p-Tolyl)-N-(4-(1-(4-(trifluoromethoxy)phenyl)-1H-1,2,4-triazol-3-yl)phenyl)-4,5-dihydrothiazol-2-amine], the mortality at 50 µg/cm2 in assay [1] and in assay [2] was 0% each time. In assay [3], the mortality at 200 ppm was 0%.
Take `FC(F)(F)Oc1ccc(-n2cnc(-c3ccc(NC4=NC(c5ccccc5)CS4)cc3)n2)cc1` (stereo not drawn) [Compound F23, 4-Phenyl-N-(4-(1-(4-(trifluoromethoxy)phenyl)-1H-1,2,4-triazol-3-yl)phenyl)-4,5-dihydrothiazol-2-amine]: the mortality at 50 µg/cm2 in assay [1] and in assay [2] was 0% throughout. Besides, the mortality at 200 ppm in assay [3] is 0%.
